Assay results published in US9776990B2, “Isoindolone derivatives” (AbbVie Inc., priority 2012, dated 2017).

Legend:
BRD4 (BDI_K57-E168) = BRD4 (BDI_K57-E168) (Homo sapiens (Human), UniProt O60885); experiment: TR-FRET bromodomain binding assay, BRD4 first bromodomain; conditions: His-tagged BD1, 100 nM Alexa647 probe
Procedure: (§1) A time-resolved fluorescence resonance energy transfer (TR-FRET) assay was used to determine the affinities of compounds of the Examples listed in Table 1 for each bromodomain of BRD4. His-tagged first (BD1: amino acids K57-E168) and second (BD2: amino acids E352-E168) bromodomains of BRD4 were expressed and purified. An Alexa647-labeled BET-inhibitor was used as the fluorescent probe in the assay.
(§2) Compound dilution series were prepared in DMSO via a 3-fold serial dilution from 2.5 mM to 42 nM. Compounds were then diluted 6:100 in assay buffer (20 mM Sodium Phosphate, pH 6.0, 50 mM NaCl, 1 mM EDTA, 0.01% Triton X-100, 1 mM DTT) to yield 3× working solutions. Six microliters (μL) of the working solution was then transferred to white, low-volume assay plates (Costar #3673). A 1.5× assay mixture containing His-tagged bromodomain, Europium-conjugated anti-His antibody (Invitrogen PV5596) and the Alexa-647-conjugated probe molecule was also prepared. Twelve μL of this solution were added to the assay plate to reach a final volume of 18 μL. The final concentration of 1× assay buffer contains 2% DMSO, 50 μM−0.85 nM compound, 8 nM bromodomain, 1 nM antibody and 100 or 30 nM probe (for BDI or BDII, respectively). After a one-hour incubation at room temperature, TR-FRET ratios were determined using an Envision multilabel plate reader (Ex 340, Em 495/520).
(§3) TR-FRET data were normalized to the means of 24 no-compound controls (“high”) and 8 controls containing 1 μM un-labeled probe (“low”). Percent inhibition was plotted as a function of compound concentration and the data were fit with the 4 parameter logistic equation to obtain IC50s Inhibition constants (Ki) were calculated from the IC50s, probe Kd and probe concentration. Typical Z′ values were between 0.65 and 0.75. The minimum significant ratio was determined to evaluate assay reproducibility (Eastwood et al., (2006) J Biomol Screen, 11: 253-261). The MSR was determined to be 2.03 for BDI and 1.93 for BDII, and a moving MSR (last six run MSR overtime) for both BDI and BDII was typically <3.

[1] = test system: breast cancer cell line MX-1; experiment: MX-1 cell line proliferation assay (3-day, Cell Titer Glo); type: cell-based, human; conditions: Homo sapiens, MX1, MX-1 cells, 72 hours, read-out: Cellular proliferation: EC50
Procedure: The impact of compounds of the Examples on cancer cell proliferation was determined using the breast cancer cell line MX-1 (ATCC) in a 3-day proliferation assay. MX-1 cells were maintained in RPMI supplemented with 10% FBS at 37 C.° and an atmosphere of 5% CO2. For compound testing, MX-1 cells were plated in 96-well black bottom plates at a density of 5000 cells/well in 90 μl of culture media and incubated at 37° overnight to allow cell adhesion and spreading. Compound dilution series were prepared in DMSO via a 3-fold serial dilution from 3 mM to 0.1 μM. The DMSO dilution series were then diluted 1:100 in phosphate buffered saline, and 10 μL of the resulted solution were added to the appropriate wells of the MX-1 cell plate. The final compound concentrations in the wells were 3, 1, 0.3, 0.1, 0.03, 0.01, 0.003, 0.001, 0.0003 and 0.0001 μM.
Luminescence readings from the Cell Titer Glo assay were normalized to the DMSO treated cells and analyzed using the GraphPad Prism software with sigmoidal curve fitting to obtain EC50s. The minimum significant ratio (MSR) was determined to evaluate assay reproducibility (Eastwood et al., (2006) J Biomol Screen, 11: 253-261).

BRD4 (BDII_E352-M457) = BRD4 (BDII_E352-M457) (Homo sapiens (Human), UniProt O60885); experiment: TR-FRET bromodomain binding assay, BRD4 second bromodomain; conditions: His-tagged BD2, 30 nM Alexa647 probe
Procedure: as §1, §2, §3

Compound	Ki (BRD4 (BDI_K57-E168)) [nM]	EC50 [1] [nM]	Ki (BRD4 (BDII_E352-M457)) [nM]
Cc1[nH]c(-c2ccccc2Oc2ccccc2)c2c1C(=O)CC(C)C2 (centres unmarked) [Example 65, 3,6-dimethyl-1-(2-phenoxyphenyl)-2,5,6,7-tetrahydro-4H-isoindol-4-one]	184	1780	382
COc1cc(-c2[nH]c(C)c3c2CCCC3=O)cc(OC)c1OC [Example 7, 3-methyl-1-(3,4,5-trimethoxyphenyl)-2,5,6,7-tetrahydro-4H-isoindol-4-one]	261	676	805
CC(=O)Nc1ccc(Oc2ccc(F)cc2F)c(-c2[nH]c(C)c3c2CCCC3=O)c1 [Example 50, N-[4-(2,4-difluorophenoxy)-3-(3-methyl-4-oxo-4,5,6,7-tetrahydro-2H-isoindol-1-yl)phenyl]acetamide]	71	609	551
Cc1[nH]c(-c2ccccc2OCC2CCCO2)c2c1C(=O)CCC2 (centres unmarked) [Example 31, 3-methyl-1-[2-(tetrahydrofuran-2-ylmethoxy)phenyl]-2,5,6,7-tetrahydro-4H-isoindol-4-one]	765	> 3000	4680
CCNC(=O)c1ccc(Oc2ccccc2)c(-c2[nH]c(C)c3c2CCCC3=O)c1 [Example 55, N-ethyl-3-(3-methyl-4-oxo-4,5,6,7-tetrahydro-2H-isoindol-1-yl)-4-phenoxybenzamide]	77	1390	511
Cc1[nH]c(-c2cc(C(=O)NCC3CCCO3)ccc2Oc2ccccc2)c2c1C(=O)CCC2 (centres unmarked) [Example 56, 3-(3-methyl-4-oxo-4,5,6,7-tetrahydro-2H-isoindol-1-yl)-4-phenoxy-N-(tetrahydrofuran-2-ylmethyl)benzamide]	68	734	653
Cc1[nH]c(-c2ccccc2OCc2cccc3ccsc23)c2c1C(=O)CCC2 [Example 36, 1-[2-(1-benzothiophen-7-ylmethoxy)phenyl]-3-methyl-2,5,6,7-tetrahydro-4H-isoindol-4-one]	8830	–	9730
Cc1[nH]c(-c2ccccc2OCc2ccccc2)c2c1C(=O)CC(C)(C)C2 [Example 62, 1-[2-(benzyloxy)phenyl]-3,6,6-trimethyl-2,5,6,7-tetrahydro-4H-isoindol-4-one]	1500	–	1750
Cc1[nH]c(-c2ccccc2-c2ccco2)c2c1C(=O)CCC2 [Example 27, 1-[2-(furan-2-yl)phenyl]-3-methyl-2,5,6,7-tetrahydro-4H-isoindol-4-one]	2760	–	6580
Cc1[nH]c(-c2cc(C(=O)Nc3nccs3)ccc2Oc2ccccc2)c2c1C(=O)CCC2 [Example 57, 3-(3-methyl-4-oxo-4,5,6,7-tetrahydro-2H-isoindol-1-yl)-4-phenoxy-N-(1,3-thiazol-2-yl)benzamide]	1070	–	22200
Cc1[nH]c(-c2ccccc2COc2ccccc2)c2c1C(=O)CCC2 [Example 24, 3-methyl-1-[2-(phenoxymethyl)phenyl]-2,5,6,7-tetrahydro-4H-isoindol-4-one]	1200	–	2300
Cc1ccccc1OCc1ccccc1-c1[nH]c(C)c2c1CCCC2=O [Example 25, 3-methyl-1-{2-[(2-methylphenoxy)methyl]phenyl}-2,5,6,7-tetrahydro-4H-isoindol-4-one]	4240	–	15100
Cc1ccc(C)c(-c2[nH]c(C)c3c2CC(C)(C)CC3=O)c1 [Example 60, 1-(2,5-dimethylphenyl)-3,6,6-trimethyl-2,5,6,7-tetrahydro-4H-isoindol-4-one]	3370	–	2700
Cc1[nH]c(-c2ccccc2)c2c1C(=O)CC(C)(C)C2 [Example 59, 3,6,6-trimethyl-1-phenyl-2,5,6,7-tetrahydro-4H-isoindol-4-one]	3230	–	2520
COc1ccccc1-c1[nH]c(C)c2c1CCCC2=O [Example 6, 1-(2-methoxyphenyl)-3-methyl-2,5,6,7-tetrahydro-4H-isoindol-4-one]	2700	–	9970
Cc1[nH]c(-c2cccc3cc[nH]c23)c2c1C(=O)CCC2 [Example 22, 1-(1H-indol-7-yl)-3-methyl-2,5,6,7-tetrahydro-4H-isoindol-4-one]	2470	–	8210
Cc1[nH]c(-c2ccccc2Oc2ccccc2)c2c1C(=O)CC(C(C)C)C2 (centres unmarked) [Example 70, 3-methyl-1-(2-phenoxyphenyl)-6-(propan-2-yl)-2,5,6,7-tetrahydro-4H-isoindol-4-one]	1200	–	2220
Cc1[nH]c(-c2ccccc2N2CCOCC2)c2c1C(=O)CC(C)(C)C2 [Example 61, 3,6,6-trimethyl-1-[2-(morpholin-4-yl)phenyl]-2,5,6,7-tetrahydro-4H-isoindol-4-one]	2200	–	1680
Cc1[nH]c(-c2ccccc2Cl)c2c1C(=O)CCC2 [Example 15, 1-(2-chlorophenyl)-3-methyl-2,5,6,7-tetrahydro-4H-isoindol-4-one]	1140	–	22200
Cc1ccc(-c2[nH]c(C)c3c2CCCC3=O)cc1C [Example 12, 1-(3,4-dimethylphenyl)-3-methyl-2,5,6,7-tetrahydro-4H-isoindol-4-one]	2860	–	10400
Cc1[nH]c(-c2ccc3c(c2)OCO3)c2c1C(=O)CCC2 [Example 16, 1-(1,3-benzodioxol-5-yl)-3-methyl-2,5,6,7-tetrahydro-4H-isoindol-4-one]	3770	–	8420
Cc1[nH]c(-c2ccccc2N)c2c1C(=O)CCC2 [Example 3, 1-(2-aminophenyl)-3-methyl-2,5,6,7-tetrahydro-4H-isoindol-4-one]	3730	–	15000
Cc1[nH]c(-c2ccccc2OCc2ccc3[nH]ncc3c2)c2c1C(=O)CCC2 [Example 38, 1-[2-(1H-indazol-5-ylmethoxy)phenyl]-3-methyl-2,5,6,7-tetrahydro-4H-isoindol-4-one]	4880	–	4860
Cc1[nH]c(-c2ccccc2COc2cccc(C(F)(F)F)c2)c2c1C(=O)CCC2 [Example 23, 3-methyl-1-(2-{[3-(trifluoromethyl)phenoxy]methyl}phenyl)-2,5,6,7-tetrahydro-4H-isoindol-4-one]	9090	–	8920
Cc1[nH]c(-c2ccccc2Oc2ccccc2)c2c1C(=O)CC(C)(C)C2 [Example 63, 3,6,6-trimethyl-1-(2-phenoxyphenyl)-2,5,6,7-tetrahydro-4H-isoindol-4-one]	786	–	1030
Cc1[nH]c(-c2cccc(OCc3ccccc3)c2)c2c1C(=O)CCC2 [Example 14, 1-[3-(benzyloxy)phenyl]-3-methyl-2,5,6,7-tetrahydro-4H-isoindol-4-one]	9060	–	22200
COC(=O)c1ccc(Oc2ccccc2)c(-c2[nH]c(C)c3c2CCCC3=O)c1 [Example 53, methyl 3-(3-methyl-4-oxo-4,5,6,7-tetrahydro-2H-isoindol-1-yl)-4-phenoxybenzoate]	927	–	3670
Cc1[nH]c(-c2ccc3c(c2)OCO3)c2c1C(=O)CC(C)(C)C2 [Example 58, 1-(1,3-benzodioxol-5-yl)-3,6,6-trimethyl-2,5,6,7-tetrahydro-4H-isoindol-4-one]	932	–	513
Cc1[nH]c(-c2cccc3ccccc23)c2c1C(=O)CCC2 [Example 19, 3-methyl-1-(naphthalen-1-yl)-2,5,6,7-tetrahydro-4H-isoindol-4-one]	–	3180	–
Cc1[nH]c(-c2cccc3[nH]cnc23)c2c1C(=O)CCC2 [Example 21, 1-(1H-benzimidazol-4-yl)-3-methyl-2,5,6,7-tetrahydro-4H-isoindol-4-one]	1860	–	5920
